In test [1] the target is T1, μ-opioid receptor (Homo sapiens, UniProt P35372). Description: cell-based. Also noted: purchased Perkin Elmer, Shelton, Conn. To be noted: U2OS cells; for Emax: read-out: β-Arr2 μ Emax; for EC50: read-out: β-Arr2 μ EC50.
Test [2] addresses T2, κ-opioid receptor (Homo sapiens, UniProt P41145). Description: κ-opioid receptor β-Arr2 activity response, U2OS cells. The format is cell-based. Further details: expressed in transfected cells; host or cells: U-2 OS. As to conditions: U2OS cells; for EC50: read-out: β-Arr2 κ EC50.
Test [3] has as its target T1, μ-opioid receptor. The test is described as follows: μ-opioid receptor GTPγS functional assay, U2OS cells. To be noted: for Emax: read-out: GTPγS μ Emax.
Test [4] addresses T2, κ-opioid receptor. The test is described as follows: κ-opioid receptor GTPγS functional assay, U2OS cells. The format is biochemical. Further details: expressed in transfected cells; host or cells: U-2 OS. As to conditions: U2OS cells; for EC50: read-out: GTPγS κ EC50. The method, then: (§1) Plates were incubated for 30 min at a temperature of about 25° C. with shaking.
In test [5] the target is T1, μ-opioid receptor. The test is described as follows: biochemical. Further details: purchased Perkin Elmer, Shelton, Conn; host or cells: HEK-293 or CHO. To be noted: HEK-293 or CHO cells; for EC50: read-out: GTPγS μ EC50; for Emax: relative to DAMGO, read-out: GTPγS μ Emax.
For test [6], the target named is T2, κ-opioid receptor. The test is described as follows: κ-opioid receptor [35S]GTPγS functional assay, HEK-293 or CHO cells. Also noted: expressed in transfected cells; host or cells: HEK-293. To be noted: HEK-293 or CHO cells. The format is biochemical. Here is the method:
as §1
For orientation: GTPγS is a poorly hydrolysed GTP analogue; its binding reports G protein activation.

T1 sequence (P35372 whole entry, species assumed): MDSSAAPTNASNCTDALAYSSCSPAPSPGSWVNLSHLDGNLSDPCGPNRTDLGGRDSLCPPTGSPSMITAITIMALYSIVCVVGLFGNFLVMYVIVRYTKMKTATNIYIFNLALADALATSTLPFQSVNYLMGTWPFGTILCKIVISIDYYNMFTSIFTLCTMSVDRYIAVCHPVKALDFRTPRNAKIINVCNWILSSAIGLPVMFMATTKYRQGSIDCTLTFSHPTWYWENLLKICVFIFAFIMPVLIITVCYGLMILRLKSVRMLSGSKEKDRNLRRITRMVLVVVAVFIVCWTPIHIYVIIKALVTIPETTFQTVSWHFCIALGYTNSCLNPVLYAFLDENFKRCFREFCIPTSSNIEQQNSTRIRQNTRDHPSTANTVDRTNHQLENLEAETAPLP
T2 sequence (P41145 whole entry): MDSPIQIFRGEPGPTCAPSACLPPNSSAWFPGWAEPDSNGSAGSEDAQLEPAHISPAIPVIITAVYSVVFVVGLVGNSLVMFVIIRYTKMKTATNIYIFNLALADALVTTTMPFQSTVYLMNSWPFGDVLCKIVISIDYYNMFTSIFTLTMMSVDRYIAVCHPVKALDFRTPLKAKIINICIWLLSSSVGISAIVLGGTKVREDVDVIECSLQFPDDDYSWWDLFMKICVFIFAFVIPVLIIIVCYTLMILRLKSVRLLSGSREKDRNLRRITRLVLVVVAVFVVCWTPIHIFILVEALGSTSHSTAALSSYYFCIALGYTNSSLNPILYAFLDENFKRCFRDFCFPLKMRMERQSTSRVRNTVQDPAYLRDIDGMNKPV

Consider `CCOC(=O)c1ccc(NC(=O)NCC[C@]23CCN(CC4CC4)[C@H](Cc4ccc(OC)cc42)[C@@H]3C)cc1` [Compound 1, Ethyl 4-(3-(2-((2R,6R,11R)-3-(cyclopropylmethyl)-8-methoxy-11-methyl-2,3,4,5-tetrahydro-2,6-methanobenzo[d]azocin-6(1H)-yl)ethyl)ureido)benzoate], for which the Emax (in general, the greatest response seen or fitted, relative to the assay's reference) stood at 25.5% at μ-opioid receptor [1]; 44.2 ± 4.05% on κ-opioid receptor [2]; 62 ± 2.08% on μ-opioid receptor [3]; 103 ± 3.53% on κ-opioid receptor [4]; 27.8 ± 0.85% on μ-opioid receptor [5]; 78.3 ± 0.91% on κ-opioid receptor [6] (relative to U69,593). For the same compound, the EC50 (commonly the concentration needed to bring the measured effect to its halfway point) amounted to 63.8 ± 7.23 nM on κ-opioid receptor [2]; 164 ± 31.6 nM on μ-opioid receptor [3]; 5.79 ± 0.56 nM on κ-opioid receptor [4]; 4.21 ± 0.67 nM at μ-opioid receptor [5]; 33.4 ± 2.26 nM on κ-opioid receptor [6] (read-out: GTPγS κ EC50).

`C[C@H]1[C@H]2Cc3ccc(O)cc3[C@]1(CCNS(C)(=O)=O)CCN2CC1CC1` [Compound 3, N-(2-((2R,6S,11R)-3-(cyclopropyl-methyl)-8-hydroxy-11-methyl-2,3,4,5-tetrahydro-2,6-methanobenzo[d]azocin-6(1H)-yl)ethyl)methanesulfonamide]: the Emax at μ-opioid receptor [1] is 0%; on κ-opioid receptor [2] it was -0.33 ± 0.67%; on μ-opioid receptor [3], 16.7 ± 0.33%; on κ-opioid receptor [4], 104 ± 2.52%. In addition, the EC50 was 0.85 ± 0.11 nM at μ-opioid receptor [3] and 0.32 ± 0.031 nM at κ-opioid receptor [4].

As to `COc1ccc2c(c1)[C@]1(CCNC(=O)[C@H](C)NC(C)=O)CCN(CC3CC3)[C@H](C2)[C@@H]1C` [Compound 4, (S)-2-acetamido-N-(2-((2R,6R,11R)-3-(cyclopropylmethyl)-8-methoxy-11-methyl-2,3,4,5-tetrahydro-2,6-methanobenzo[d]azocin-6(1H)-yl)ethyl)propanamide], the Emax at μ-opioid receptor [1] came to 1.3 ± 0.77%; on κ-opioid receptor [2], 59.3 ± 4.06%; at μ-opioid receptor [3] it was 80.2 ± 3.3%; on κ-opioid receptor [4], 97 ± 5.29%; at μ-opioid receptor [5], 0%. For the same compound, the EC50 was 403 ± 59.9 nM on κ-opioid receptor [2], 522 ± 60.1 nM on μ-opioid receptor [3] and 38.2 ± 4.89 nM on κ-opioid receptor [4].

On to `COc1ccc2c(c1)[C@]1(CCNC(=O)[C@@H]3CCCN3C(C)=O)CCN(CC3CC3)[C@H](C2)[C@@H]1C` [Compound 5, (S)-1-acetyl-N-(2-((2R,6R,11R)-3-(cyclopropylmethyl)-8-methoxy-11-methyl-2,3,4,5-tetrahydro-2,6-methanobenzo[d]azocin-6(1H)-yl)ethyl)pyrrolidine-2-carboxamide], for which the Emax on μ-opioid receptor [1] is -1%; on κ-opioid receptor [2], 58.7 ± 5.93%; on μ-opioid receptor [3] it was 75.2 ± 1.55%; on κ-opioid receptor [4], 100 ± 4.58%; at μ-opioid receptor [5], 16.3 ± 1.44%. Also, the EC50 is 407 ± 65.5 nM at κ-opioid receptor [2], 629 ± 16.8 nM on μ-opioid receptor [3], 63.3 ± 10.2 nM at κ-opioid receptor [4] and 468 ± 122 nM at μ-opioid receptor [5].

For `C[C@H]1[C@H]2Cc3ccc(O)cc3[C@]1(CCNS(=O)(=O)C1CC1)CCN2CC1CC1` [Compound 6, N-(2-((2R,6S,11R)-3-(cyclopropyl-methyl)-8-hydroxy-11-methyl-2,3,4,5-tetrahydro-2,6-methanobenzo[d]azocin-6(1H)-yl)ethyl)-cyclopropanesulfonamide], the Emax at μ-opioid receptor [1] is -0.33 ± 0.67%; on μ-opioid receptor [3], 30.7 ± 0.88%; at κ-opioid receptor [4] it was 107 ± 2.65%; at μ-opioid receptor [5], -0.33 ± 0.67%. Also, the EC50 is 0.88 ± 0.095 nM at μ-opioid receptor [3] and 0.072 ± 0.013 nM on κ-opioid receptor [4].

For the compound `C[C@H]1[C@H]2Cc3ccc(O)cc3[C@]1(CCN1CCN(C(c3ccc(F)cc3)c3ccc(F)cc3)CC1)CCN2C` [Compound 8, (2R,6R,11R)-6-(2-(4-(bis(4-fluoro-phenyl)methyl)piperazin-1-yl)ethyl)-3,11-dimethyl-1,2,3,4,5,6-hexahydro-2,6-methanobenzo[d]azocin-8-ol], the results for the EC50 at μ-opioid receptor [1], at μ-opioid receptor [3] and at μ-opioid receptor [5] were 4710 ± 227 nM, 72.7 ± 4.92 nM and 796 ± 72.2 nM, respectively. Also, the Emax came to 70.7 ± 6.98% at μ-opioid receptor [1], 100 ± 3.06% at μ-opioid receptor [3] and 47 ± 1.53% on μ-opioid receptor [5].

As to `COc1ccc2c(c1)[C@]1(CCOCc3ccccc3)CCN(C)[C@H](C2)[C@@H]1C` [Compound 48, (2R,6S,11R)-6-(2-(benzyloxy)ethyl)-8-methoxy-3,11-dimethyl-1,2,3,4,5,6-hexahydro-2,6-methanobenzo[d]azocine], the EC50 amounted to 4380 ± 627 nM at μ-opioid receptor [1]; 16300 ± 7600 nM on κ-opioid receptor [2]; 313 ± 28 nM at μ-opioid receptor [3]; 104 ± 15.8 nM on κ-opioid receptor [4]; 2240 ± 190 nM on μ-opioid receptor [5]. Besides, the Emax came out at 27.7 ± 0.88% at μ-opioid receptor [1]; 64.3 ± 9.39% on κ-opioid receptor [2]; 97 ± 2.08% at μ-opioid receptor [3]; 108 ± 4.51% on κ-opioid receptor [4]; 53.1 ± 4.36% at μ-opioid receptor [5].

Regarding `C[C@H]1[C@H]2Cc3ccc(O)cc3[C@]1(CCOc1cncc(C(=O)O)c1)CCN2C` [Compound 52, 5-(2-((2R,6S,11R)-8-hydroxy-3,11-dimethyl-2,3,4,5-tetrahydro-2,6-methanobenzo[d]azocin-6(1H)-yl)ethoxy)nicotinic acid], the EC50 was determined as 403 ± 110 nM at μ-opioid receptor [1], 68.1 ± 6.57 nM at μ-opioid receptor [3], 434 ± 39.1 nM on κ-opioid receptor [4] and 320 ± 46.9 nM at μ-opioid receptor [5]. Moreover, the Emax amounted to 6.77 ± 1.13% at μ-opioid receptor [1]; 1% on κ-opioid receptor [2]; 89 ± 4% at μ-opioid receptor [3]; 99 ± 1.73% on κ-opioid receptor [4]; 35 ± 1.53% on μ-opioid receptor [5].

In the case of `C[C@H]1[C@H]2Cc3ccc(O)cc3[C@]1(CCN1CCC(N(C3CC3)S(=O)(=O)c3ccc(Cl)cc3)CC1)CCN2C` [Compound 58, 4-chloro-N-cyclopropyl-N-(1-(2-((2R,6R,11R)-8-hydroxy-3,11-dimethyl-2,3,4,5-tetrahydro-2,6-methanobenzo-[d]azocin-6(1H)-yl)ethyl)piperidin-4-yl)-benzenesulfonamide], the EC50 at μ-opioid receptor [1] was determined as 2140 ± 586 nM; at κ-opioid receptor [2], 8900 ± 1620 nM; on μ-opioid receptor [3], 20.3 ± 1.82 nM; on κ-opioid receptor [4] it was 11 ± 1.59 nM; at μ-opioid receptor [5], 179 ± 12.7 nM. The Emax at μ-opioid receptor [1] worked out at 77.7 ± 7.06%; on κ-opioid receptor [2] it was 80.3 ± 7.75%; at μ-opioid receptor [3] it was 98 ± 2%; on κ-opioid receptor [4] it was 60 ± 1%; at μ-opioid receptor [5] it was 53.3 ± 2.96%.

For `C[C@H]1[C@H]2Cc3ccc(O)cc3[C@]1(CCNCCc1ccc(S(N)(=O)=O)cc1)CCN2C` [Compound 59, 4-(2-((2-((2R,6R,11R)-8-hydroxy-3,11-dimethyl-2,3,4,5-tetrahydro-2,6-methanobenzo[d]azocin-6(1H)-yl)ethyl)amino)ethyl)benzenesulfonamide], the Emax on μ-opioid receptor [1] was -1%; on κ-opioid receptor [2] it was 1%; on μ-opioid receptor [3], 74 ± 3.51%; on κ-opioid receptor [4] it was 112 ± 7.54%; on μ-opioid receptor [5] it was 38 ± 4.18%. Also, the EC50 on μ-opioid receptor [3] amounted to 85.6 ± 9.67 nM; on κ-opioid receptor [4] it was 61.2 ± 10 nM; on μ-opioid receptor [5], 369 ± 50.2 nM.

For `C[C@H]1[C@H]2Cc3ccc(O)cc3[C@]1(CC(=O)N1CCC(N(C3CC3)S(=O)(=O)c3ccc(Cl)cc3)CC1)CCN2C` [Compound 61, 4-chloro-N-cyclopropyl-N-(1-(2-((2R,6S,11R)-8-hydroxy-3,11-dimethyl-2,3,4,5-tetrahydro-2,6-methano-benzo[d]azocin-6(1H)-yl)acetyl)-piperidin-4-yl)benzenesulfonamide], the EC50 at μ-opioid receptor [1] came to 649 ± 180 nM; on κ-opioid receptor [2], 7290 ± 2060 nM; on μ-opioid receptor [3], 146 ± 24.8 nM; at κ-opioid receptor [4], 45.4 ± 6.69 nM; on μ-opioid receptor [5], 283 ± 28.8 nM. The Emax at μ-opioid receptor [1] amounted to 7.67 ± 0.73%; on κ-opioid receptor [2], 14.7 ± 1.33%; at μ-opioid receptor [3] it was 78.7 ± 0.33%; at κ-opioid receptor [4] it was 42.7 ± 2.03%; at μ-opioid receptor [5], 35.7 ± 1.2%.

As for `C[C@H]1[C@H]2Cc3ccc(O)cc3[C@]1(CC(=O)NCCc1ccc(S(N)(=O)=O)cc1)CCN2C` [Compound 62, 2-((2R,6S,11R)-8-hydroxy-3,11-dimethyl-2,3,4,5-tetrahydro-2,6-methanobenzo[d]azocin-6(1H)-yl)-N-(4-sulfamoylphenethyl)acetamide], the Emax was -1% at μ-opioid receptor [1], 49.7 ± 0.88% on μ-opioid receptor [3], 35.7 ± 1.67% on κ-opioid receptor [4] and 17 ± 1.53% on μ-opioid receptor [5]. Besides, the EC50 at μ-opioid receptor [3] is 172 ± 18.7 nM; at κ-opioid receptor [4], 1120 ± 53.4 nM; at μ-opioid receptor [5], 538 ± 22.9 nM.

Source of the values: patent US10130615B2, “Benzomorphan analogs and the use thereof” (priority 2014, dated 2018).
